Legend:
[1] = system: Mtb strain SRMV2.6 (MtbIMPDH2/Y487C); assay type: cell-based, Mycobacterium tuberculosis
MtbIMPDH2ΔCBS = MtbIMPDH2ΔCBS (Mycobacterium tuberculosis, UniProt P9WKI7, R252G); assay type: biochemical; details: for Ki: read-out: Ki,app MtbIMPDH2
MtbIMPDH2/Y487C = MtbIMPDH2/Y487C (Mycobacterium tuberculosis, UniProt P9WKI7, Y487C); assay type: biochemical

## COc1ccc(OC(C)C(=O)Nc2ccc3oc(-c4ccncc4)nc3c2)cc1 (stereo not drawn) [Compound 1, reference compound]
[1]
  MIC SRMV2.6: >100 µM
  susceptibility of strain SRMV2.6: resistant

## COc1ccc(-c2nc3cc(NC(=O)[C@H](C)Oc4cccc(Cl)c4Cl)ccc3o2)cn1 [Compound 8c, (S)-2-(2,3-dichlorophenoxy)-N-(2-(6-methoxypyridin-3-yl)benzo[d]oxazol-5-yl)propanamide]
MtbIMPDH2ΔCBS
  fold increase in MtbIMPDH2ΔCBS inhibitory activity compared to 2: 5 fold

## COc1ccc(-c2nc3cc(NC(=O)[C@H](C)Oc4cccc(Cl)c4Cl)ccc3o2)cc1 [Compound 8d, (S)-2-(2,3-Dichlorophenoxy)-N-(2-(4-methoxyphenyl)benzo[d]oxazol-5-yl)propanamide]
MtbIMPDH2ΔCBS
  fold increase in MtbIMPDH2ΔCBS inhibitory activity compared to 2: 7 fold

## C[C@H](Oc1cccc(Cl)c1Cl)C(=O)Nc1ccc2oc(-c3ccc(OC(F)(F)F)cc3)nc2c1 [Compound 8e, (S)-2-(2,3-Dichlorophenoxy)-N-(2-(4-(trifluoromethoxy)phenyl)benzo[d]oxazol-5-yl)propanamide]
MtbIMPDH2ΔCBS
  fold increase in MtbIMPDH2ΔCBS inhibitory activity compared to 2: 7 fold

## C[C@H](Oc1cccc(Cl)c1Cl)C(=O)Nc1ccc2oc(-c3ccc(C#N)cc3)nc2c1 [Compound 8f, (S)-N-(2-(4-Cyanophenyl)benzo[d]oxazol-5-yl)-2-(2,3-dichlorophenoxy)propanamide]
MtbIMPDH2ΔCBS
  fold increase in MtbIMPDH2ΔCBS inhibitory activity compared to 2: 7 fold

## C[C@H](Oc1cccc(Cl)c1Cl)C(=O)Nc1ccc2oc(-c3ccc(O)cc3)nc2c1 [Compound 8i, (S)-2-(2,3-Dichlorophenoxy)-N-(2-(4-hydroxyphenyl)benzo[d]oxazol-5-yl)propanamide]
MtbIMPDH2ΔCBS
  fold increase in MtbIMPDH2ΔCBS inhibitory activity compared to 2: 2 fold

## COc1ccc(Cc2nc3cc(NC(=O)[C@H](C)Oc4cccc(Cl)c4Cl)ccc3o2)cc1 [Compound 15, (S)-2-(2,3-dichlorophenoxy)-N-(2-(4-methoxybenzyl)benzo[d]oxazol-5-yl)prop-anamide]
MtbIMPDH2ΔCBS
  factor of reduced activity compared to 8d: 6

## C[C@H](Nc1cccc(F)c1F)C(=O)Nc1ccc2oc(-c3ccc(C#N)cc3)nc2c1 [Compound 17b, (S)-N-(2-(4-Cyanophenyl)benzo[d]oxazol-5-yl)-2-((2,3-difluorophenyl)amino)propanamide]
MtbIMPDH2/Y487C
  Ratio Ki,app (Y487C) /Ki,app (WT): 60
[1]
  MIC SRMV2.6: >100 µM
  susceptibility of strain SRMV2.6: resistant

## CCOC(=O)COc1ccc(-c2nc3cc(NC(=O)[C@H](C)Oc4cccc(Cl)c4Cl)ccc3o2)cc1 [Compound 18a, Ethyl (S)-2-(4-(5-(2-(2,3-dichlorophenoxy)propanamido)benzo[d]oxazol-2-yl)phenoxy)acetate]
[1]
  susceptibility of strain SRMV2.6: remained sensitive

## CCOC(=O)COc1cccc(-c2nc3cc(NC(=O)[C@H](C)Oc4cccc(Cl)c4Cl)ccc3o2)c1 [Compound 18b, Ethyl(S)-2-(3-(5-(2-(2,3-dichlorophenoxy)propanamido)benzo[d]oxazol-2-yl)phenoxy)acetate]
MtbIMPDH2ΔCBS
  fold loss in activity on translocating the alkoxy from para to meta position: 4 fold

## C[C@H](Oc1cccc(Cl)c1Cl)C(=O)Nc1ccc2oc(-c3cccc(OCC(=O)O)c3)nc2c1 [Compound 19b, (S)-2-(3-(5-(2-(2,3-Dichlorophenoxy)propanamido)benzo[d]oxazol-2-yl)phenoxy)acetic acid]
MtbIMPDH2ΔCBS
  fold loss in activity on translocating the alkoxy from para to meta position: 4 fold

## C[C@H](Oc1cccc(Cl)c1Cl)C(=O)Nc1ccc2oc(-c3ccc(C(=O)O)cc3)nc2c1 [Compound 22, (S)-4-(5-(2-(2,3-Dichlorophenoxy)propanamido)benzo[d]oxazol-2-yl)benzoic acid]
[1]
  susceptibility of strain SRMV2.6: remained sensitive

## C[C@H](Oc1cccc(Cl)c1Cl)C(=O)Nc1ccc2oc(-c3ccc(C(=O)NN)cc3)nc2c1 [Compound 23, (S)-2-(2,3-Dichlorophenoxy)-N-(2-(4-(hydrazinecarbonyl)phenyl)benzo[d]oxazol-5-yl)propanamide]
MtbIMPDH2ΔCBS
  fold increase in activity on replacing the carboxylate: 2 to 7 fold

## C[C@H](Oc1cccc(Cl)c1Cl)C(=O)Nc1ccc2oc(-c3ccc(-c4n[nH]c(=O)o4)cc3)nc2c1 [Compound 24, (S)-2-(2,3-Dichlorophenoxy)-N-(2-(4-(5-oxo-4,5-dihydro-1,3,4-oxadiazol-2-yl)phenyl)benzo[d]oxazol-5-yl)propanamide]
MtbIMPDH2ΔCBS
  fold increase in activity on replacing the carboxylate: 2 to 7 fold

## C[C@H](Oc1cccc(Cl)c1Cl)C(=O)Nc1ccc2oc(-c3ccc(/C(N)=N\O)cc3)nc2c1 [Compound 25, (S,Z)-2-(2,3-Dichlorophenoxy)-N-(2-(4-(N’-hydroxycarbamimidoyl)phenyl)benzo[d]oxazol-5-yl)propanamide]
MtbIMPDH2ΔCBS
  fold increase in activity on replacing the carboxylate: 2 to 7 fold

## C[C@H](Oc1cccc(Cl)c1Cl)C(=O)Nc1ccc2oc(-c3ccc(-c4noc(=O)[nH]4)cc3)nc2c1 [Compound 26, (S)-2-(2,3-Dichlorophenoxy)-N-(2-(4-(5-oxo-4,5-dihydro-1,2,4-oxadiazol-3-yl)phenyl)benzo-[d]oxazol-5-yl)propanamide]
MtbIMPDH2ΔCBS
  fold increase in activity on replacing the carboxylate: 2 to 7 fold

## C[C@H](Oc1cccc(Cl)c1Cl)C(=O)Nc1ccc2oc(-c3ccc(C(N)=O)cc3)nc2c1 [Compound 28, (S)-4-(5-(2-(2,3-Dichlorophenoxy)propanamido)benzo[d]oxazol-2-yl)benzamide]
MtbIMPDH2ΔCBS
  fold increase in activity on replacing the carboxylate: 2 to 7 fold

## (S)-2-(2,3-Dichlorophenoxy)-N-(2-(2-methoxypyridin-4-yl)benzo[d]oxazol-5-yl)propanamide [Compound 8b]
MtbIMPDH2ΔCBS
  fold increase in MtbIMPDH2ΔCBS inhibitory activity compared to 2: 5 fold
  Ki: 12 ± 0.1 nM

## (S)-2-(2,3-Dichlorophenoxy)-N-(2-(2-oxo-1,2-dihydropyridin-4-yl)benzo[d]oxazol-5-yl)propanamide [Compound 30]
MtbIMPDH2ΔCBS
  fold reduction of MtbIMPDH2ΔCBS inhibitory activity compared to 2: 3 fold
  Ki: 220 ± 6 nM
